Measured values: ChEMBL document CHEMBL5034009, “Second-Generation Dual FXR/sEH Modulators with Optimized Pharmacokinetics” (J Med Chem, 2021)
Values after ≈ are worked out from the molar mass of the structure shown. Active and inactive are the calls of the source. No cut-off for these calls is given here.

What was measured:
[1] = molecular target: T1, Bile acid receptor (Homo sapiens, UniProt Q96RI1)
T1 sequence (Q96RI1 whole entry): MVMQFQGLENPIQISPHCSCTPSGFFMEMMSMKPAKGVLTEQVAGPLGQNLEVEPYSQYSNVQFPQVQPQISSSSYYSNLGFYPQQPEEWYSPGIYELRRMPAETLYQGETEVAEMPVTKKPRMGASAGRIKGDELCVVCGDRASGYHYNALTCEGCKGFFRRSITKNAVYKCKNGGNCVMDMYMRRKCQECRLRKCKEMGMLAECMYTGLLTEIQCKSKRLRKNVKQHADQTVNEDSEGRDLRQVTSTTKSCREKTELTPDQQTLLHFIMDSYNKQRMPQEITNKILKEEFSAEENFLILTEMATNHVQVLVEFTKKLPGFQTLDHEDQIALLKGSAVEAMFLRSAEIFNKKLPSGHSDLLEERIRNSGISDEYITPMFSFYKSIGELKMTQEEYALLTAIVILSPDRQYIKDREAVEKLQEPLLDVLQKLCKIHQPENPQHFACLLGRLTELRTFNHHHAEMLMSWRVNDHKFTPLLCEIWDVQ
Description: (§1) Agonist activity at recombinant human full-length FXR expressed in HeLa cells co-expressing human RXRalpha after 24 hrs by Dual-Glo luciferase assay

[2] = Metabolic stability in Sprague-Dawley rat liver microsomes assessed as half life at 10 uM preincubated with NADPH regenerating system for 5 mins followed by addition of microsome upto 60 mins by HPLC analysis; assay type: ADME
[3] = molecular target: T2, Bifunctional epoxide hydrolase 2 (Homo sapiens, UniProt P34913); test: Inhibition of recombinant human sEH using PHOME as substrate preincubated for 30 mins followed by substrate addition and measured after 30 mins by fluoresence-based assay
T2 sequence (P34913 whole entry): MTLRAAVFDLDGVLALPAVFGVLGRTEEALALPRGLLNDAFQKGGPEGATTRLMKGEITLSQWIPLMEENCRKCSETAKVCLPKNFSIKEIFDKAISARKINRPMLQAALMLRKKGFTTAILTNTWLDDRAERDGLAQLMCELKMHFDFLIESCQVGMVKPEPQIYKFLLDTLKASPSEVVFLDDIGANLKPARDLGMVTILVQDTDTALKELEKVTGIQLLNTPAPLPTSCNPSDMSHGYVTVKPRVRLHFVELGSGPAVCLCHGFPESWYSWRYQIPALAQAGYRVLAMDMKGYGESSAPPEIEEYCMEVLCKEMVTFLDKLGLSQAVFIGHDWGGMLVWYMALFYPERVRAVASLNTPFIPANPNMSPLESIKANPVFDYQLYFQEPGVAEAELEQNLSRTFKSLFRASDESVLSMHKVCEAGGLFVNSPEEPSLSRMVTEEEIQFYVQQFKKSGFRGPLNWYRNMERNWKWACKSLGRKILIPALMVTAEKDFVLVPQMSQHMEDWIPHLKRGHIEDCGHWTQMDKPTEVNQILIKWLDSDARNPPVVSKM

[4] = Metabolic stability in Sprague-Dawley rat liver microsomes assessed as intrinsic clearance at 10 uM preincubated with NADPH regenerating system for 5 mins followed by addition of microsome upto 60 mins by HPLC analysis; assay type: ADME; settings: read-out: CLH
[5] = molecular target: T3, Bile acid receptor (Homo sapiens) (UniProt Q96RI1); test: Agonist activity at recombinant human full-length FXR expressed in HeLa cells co-expressing human RXRalpha at 30 uM after 24 hrs by Dual-Glo luciferase assay; assay type: cell-based
T3 sequence (whole entry): T1 sequence (Q96RI1 whole entry)

[6] = Aqueous solubility of compound; assay type: physicochemical; settings: buffer
[7] = test system: HepG2; test: Cytotoxicity against human HepG2 cells assessed as cell viability at 100 uM by WST-1 assay; assay type: cell-based; settings: hepg2, 100 µM
[8] = molecular target: T1, Bile acid receptor; settings: hela
Description: as §1

[9] = test system: HepG2; test: Effect on FXR regulated gene expression in human HepG2 cells assessed as induction of PPARalpha expression at 1 uM after 8 hrs by qRT-PCR analysis
[10] = test system: HepG2; test: Effect on FXR regulated gene expression in human HepG2 cells assessed as induction of SREBP1c expression at 1 uM after 8 hrs by qRT-PCR analysis
[11] = Cmax in CD-1 mouse plasma at 10 mg/kg, po administered as single dose by LC-MS analysis; assay type: ADME, organism-based; set-up: route oral, dose 10 mg/kg
[12] = Tmax in CD-1 mouse plasma at 10 mg/kg, po administered as single dose by LC-MS analysis; assay type: ADME, organism-based
[13] = Half life in CD-1 mouse plasma at 10 mg/kg, po administered as single dose by LC-MS analysis; assay type: ADME, organism-based

Structure (SMILES) | EC50 [1] | half-life at 10 µM [2] | IC50 [3] | microsomal CLint at 10 µM [4] | other results
CCOc1ccc(C(=O)NCc2ccc(NS(C)(=O)=O)cc2Cl)cc1 | 2200 nM | 1.8 h | 31 nM | 12 µL/min/mg | –
CS(=O)(=O)Nc1ccc(CNC(=O)c2ccc(CC(F)(F)F)cc2)c(Cl)c1 | 4000 nM | 1.03 h | 13 nM | 22 µL/min/mg | –
CC(C)(C)c1ccc(C(=O)NCc2c(F)cc(NS(C)(=O)=O)cc2F)cc1 | – | 2.42 h | 85 nM | 9.3 µL/min/mg | Activity [5]: inactive
CS(=O)(=O)Nc1ccc(CNC(=O)c2ccc(C3(C(F)(F)F)CC3)cc2)c(Cl)c1 | – | 3.03 h | 4.3 nM | 7.5 µL/min/mg | solubility [6]: 2.9 µg/mL (≈ 6.49 µM); Activity [7]: Non-Toxic
CC(C)(C)c1ccc(C(=O)NCc2c(Cl)cc(NS(C)(=O)=O)cc2Cl)cc1 | – | 1.37 h | 268 nM | 16 µL/min/mg | Activity [5]: inactive
CS(=O)(=O)Nc1ccc(CNC(=O)c2ccc(C3(O)CC3)cc2)c(Cl)c1 | – | – | – | – | EC50 [8]: Nd(Unstable)
CC(C)(C)c1ccc(C(=O)NCc2ccc(N)cc2Cl)cc1 | 40 nM | – | – | – | –
CC(C)(C)c1ccc(C(=O)NCc2ccc(NS(C)(=O)=O)cc2Cl)cc1 | – | 1.08 h | – | 21 µL/min/mg | –
CCS(=O)(=O)Nc1ccc(CNC(=O)c2ccc(C(C)(C)C)cc2)c(Cl)c1 | 500 nM | 0.783 h | 6.1 nM | 28 µL/min/mg | –
CS(=O)(=O)Nc1ccc(CNC(=O)c2ccc(C(F)(F)C(F)(F)F)cc2)c(Cl)c1 | 3220 nM | 1.6 h | 4 nM | 14 µL/min/mg | –
CC(C)(C)c1ccc(C(=O)NCc2ccc(NS(C)(=O)=O)cc2F)cc1 | – | 0.483 h | 16 nM | 47 µL/min/mg | Activity [5]: inactive
CN(C)c1ccc(C(=O)NCc2ccc(NS(C)(=O)=O)cc2Cl)cc1 | – | 0.883 h | – | 25 µL/min/mg | –
CS(=O)(=O)Nc1ccc(CNC(=O)c2ccc(C34CC(C3)C4)cc2)c(Cl)c1 | 560 nM | 1.35 h | 49 nM | 17 µL/min/mg | –
CS(=O)(=O)Nc1ccc(CNC(=O)c2ccc(N3CCOCC3)cc2)c(Cl)c1 | 4400 nM | 5.72 h | 175 nM | 4.1 µL/min/mg | –
CC(C)(C)c1ccc(C(=O)NCc2ccc(NS(=O)(=O)C(F)(F)F)cc2Cl)cc1 | – | 1.3 h | 21 nM | 17 µL/min/mg | Activity [5]: inactive
CC(F)(F)c1ccc(C(=O)NCc2ccc(NS(C)(=O)=O)cc2Cl)cc1 | 1200 nM | 2.35 h | 2 nM | 9.6 µL/min/mg | –
CS(=O)(=O)Nc1ccc(CNC(=O)c2ccc(N3CCCC3)cc2)c(Cl)c1 | – | 1.28 h | – | 17 µL/min/mg | –
CC(C)(O)c1ccc(C(=O)NCc2ccc(NS(C)(=O)=O)cc2Cl)cc1 | 32 nM | 20.2 h | 170 nM | 1.5 µL/min/mg | Activity [9]: inactive; solubility [6]: 48 µg/mL (≈ 121 µM); Activity [10]: inactive; Activity [7]: Non-Toxic
CC(C)(C)c1ccc(C(=O)NCc2ccc(NS(=O)(=O)C3CC3)cc2Cl)cc1 | 1500 nM | 0.55 h | 7.8 nM | 41 µL/min/mg | –
CS(=O)(=O)Nc1ccc(CNC(=O)c2ccc(OC(F)(F)F)cc2)c(Cl)c1 | 1090 nM | 2.47 h | 22 nM | 9.1 µL/min/mg | –
CS(=O)(=O)Nc1ccc(CNC(=O)c2ccc(N3CCCCC3)cc2)c(Cl)c1 | 410 nM | 1.12 h | 71 nM | 20 µL/min/mg | –
CS(=O)(=O)Nc1ccc(CNC(=O)c2ccc(C(F)(F)F)cc2)c(Cl)c1 | – | 2.43 h | 7 nM | 9.6 µL/min/mg | solubility [6]: 5.7 µg/mL (≈ 14 µM); Cmax [11]: 4930 ng/mL; Tmax [12]: 1 h; half-life [13]: 5.2 h; Activity [7]: Non-Toxic
COC(C)(C)c1ccc(C(=O)NCc2ccc(NS(C)(=O)=O)cc2Cl)cc1 | – | 0.917 h | 9 nM | 24 µL/min/mg | Activity [5]: inactive
COc1ccc(C(=O)NCc2ccc(NS(C)(=O)=O)cc2Cl)cc1 | – | 4.5 h | 38 nM | 5 µL/min/mg | Activity [5]: inactive
CS(=O)(=O)Nc1ccc(CNC(=O)c2ccc(S(F)(F)(F)(F)F)cc2)c(Cl)c1 | – | 2.3 h | 10 nM | 9.8 µL/min/mg | Activity [5]: inactive
CS(=O)(=O)Nc1ccc(CNC(=O)c2ccc(C3(O)COC3)cc2)c(Cl)c1 | – | 4.23 h | 111 nM | 5.4 µL/min/mg | Activity [5]: inactive
CC(C)Oc1ccc(C(=O)NCc2ccc(NS(C)(=O)=O)cc2Cl)cc1 | 400 nM | 1.85 h | 12 nM | 12 µL/min/mg | –
CS(=O)(=O)Nc1ccc(CNC(=O)c2ccc(N3CCC3)cc2)c(Cl)c1 | 13000 nM | 2.62 h | 94 nM | 8.6 µL/min/mg | –
CC(C)S(=O)(=O)Nc1ccc(CNC(=O)c2ccc(C(C)(C)C)cc2)c(Cl)c1 | – | 0.983 h | 11.2 nM | 23 µL/min/mg | –
